{"source": "patent US20170106109A1", "about": "(priority 2010, published 2017)", "key": {"[1]": {"tested_on": "Escherichia coli", "format": "cell-based"}, "[2]": {"tested_on": "Ralstonia solanacearum", "format": "cell-based"}, "[3]": {"tested_on": "Ralstonia solanacearum", "format": "cell-based", "remark": "listed apart in the source"}, "[4]": {"tested_on": "λ phage DNA HindIII Marker"}}, "data": [{"smiles": "OO", "note": "[Sample 3-3, hydrogen peroxide]", "values": [{"measurement": "survival of Escherichia coli", "setting": "[1]", "result": "a large amount of Escherichia coli survived"}]}, {"smiles": "OO", "note": "[Sample 4-3, hydrogen peroxide]", "values": [{"measurement": "survival of Ralstonia solanacearum", "setting": "[2]", "result": "a large amount of Ralstonia solanacearum survived"}]}, {"smiles": "OO", "note": "[Sample 6-3, hydrogen peroxide]", "values": [{"measurement": "change of bacterial density of Ralstonia solanacearum with time", "setting": "[3]", "result": "the bacterial density changed little"}]}, {"smiles": "OO", "note": "[Sample 7-3, hydrogen peroxide]", "values": [{"measurement": "DNA ladder on agarose electrophoresis", "setting": "[4]", "result": "the DNA ladder did not change"}]}]}
